{
  "source": "patent US11351163B2",
  "about": "“Compositions and methods of treating cancer” (BRISTOL-MYERS SQUIBB COMPANY, priority 2017, dated 2022)",
  "key": {"[1]": {"experiment": "Clinical trial of Example 2: safety and tolerability (DLTs, TRAEs), dose escalation and expansion", "type": "in vivo", "excerpt": "Purpose: The purpose of the study is to, among other things, determine safety and effectiveness of a compound of Formula I (or salt thereof) when combined with nivolumab and in combination with both nivolumab and ipilimumab in patients with cancers that are advanced or have spread. Pharmacokinetics and pharmacodynamics (including immunomodulatory assays) of a compound of Formula I when combined with nivolumab and in combination with nivolumab and ipilimumab in this patient population will also be assessed.\nPrimary Outcome Measures: • Safety and tolerability of a compound of Formula I as measured by a composite of the incidence of adverse events (AEs), serious adverse events (SAEs), AEs leading to discontinuation, deaths, and clinical laboratory test abnormalities. The time frame is 100 days after the last dose of study therapy. • Safety of a compound of Formula I plus nivolumab as measured by a composite of the incidence of adverse events (AEs), serious adverse events (SAEs), AEs leading to discontinuation, deaths, and clinical laboratory test abnormalities. The time frame is 100 days after the last dose of study therapy. • Safety of a compound of Formula I plus both nivolumab and ipilimumab as measured by incidence of adverse events (AEs), serious adverse events (SAEs), AEs leading to discontinuation, deaths, and clinical laboratory test abnormalities. The time frame is 100 days after the last dose of study therapy. • Anti-tumor activity of a compound of Formula I administered in combination with nivolumab as measured by the best overall response (BOR) as measured by CT scan. The time frame is approximately 3 years. • Anti-tumor activity of a compound of Formula I administered in combination with nivolumab as measured by the duration of response (DOR) as measured by CT scan. The time frame is approximately 3 years. • Anti-tumor activity of a compound of Formula I administered in combination with nivolumab as measured by progression-free survival rates (PFSRs) as measured by CT scan. The time frame is approximately 3 years. • Anti-tumor activity of a compound of Formula I administered in combination with both nivolumab and ipilimumab as measured by the best overall response (BOR) as measured by CT scan. The time frame is approximately 3 years. • Anti-tumor activity of a compound of Formula I administered in combination with both nivolumab and ipilimumab as measured by the duration of response (DOR) as measured by CT scan. The time frame is approximately 3 years. • Anti-tumor activity of a compound of Formula I administered in combination with both nivolumab and ipilimumab as measured by progression-free survival rates (PFSRs) as measured by CT scan. The time frame is approximately 3 years.\n1. Combination Therapy (Dose Escalation). Participants with advanced cancers received a compound of Formula I orally (PO), daily (QD) at a dose of 25 mg, 50 mg, 100 mg or 200 mg for all advanced cancers over a 2 week lead-in period. Participants were then also administered nivolumab intravenously at a dose of 240 mg once every two weeks.\n2. Combination Therapy (Dose Expansion). A total of 219 participants with select previously treated advanced malignancies received a compound of Formula I at a dose of 100 or 200 mg orally once daily plus nivolumab at a dose of 240 mg intravenously once every two weeks (Q2W) or at a dose of 480 mg intravenously once every four weeks (Q4W). Advanced malignancies included cervical cancer (21 patients), diffuse large B-cell lymphoma (DLBCL) (4 patients), non-small cell lung cancer (NSCLC) (7 patients), renal cell carcinoma (RCC) (0 patients); squamous cell carcinoma of the head and neck (SCCHN) (16 patients), bladder cancer (18 patients), pancreatic cancer (18 patients), melanoma (21 patients), and ASST, a mixed tumor type cohort consisting of sarcoma, endometrial and breast cancer (19 patients). […]"}, "[2]": {"tested_on": "kynurenine", "experiment": "Kynurenine in paired tumor samples and serum of patients (FIG. 1A, 1B)", "type": "in vivo, human", "description": "FIG. 1A illustrates intratumoral kynurenine concentrations at 100 mg, 200 mg or 400 mg of the compound of Formula (I).\nFIG. 1B illustrates percent serum kynurenine reduction at 20 mg, 50 mg, 100 mg, 200 mg or 400 mg of the compound of Formula (I).\nDark bars represent a pretreatment kynurenine condition and light bars represent an on-treatment kynurenine (C1D15) condition. Asterisks (*) denotes samples below the lower limit of quantitation."}, "[3]": {"experiment": "Clinical trial of Example 10: safety (TRAEs) and end of treatment disposition", "type": "in vivo", "excerpt": "Primary Outcome Measures: • Safety and tolerability of a compound of Formula I as measured by a composite of the incidence of adverse events (AEs), serious adverse events (SAEs), AEs leading to discontinuation, deaths, and clinical laboratory test abnormalities. The time frame is 100 days after the last dose of study therapy. • Safety of a compound of Formula I plus nivolumab as measured by a composite of the incidence of adverse events (AEs), serious adverse events (SAEs), AEs leading to discontinuation, deaths, and clinical laboratory test abnormalities. […] The time frame is approximately 3 years. • Anti-tumor activity of a compound of Formula I administered in combination with nivolumab as measured by the duration of response (DOR) as measured by CT scan. The time frame is approximately 3 years. • Anti-tumor activity of a compound of Formula I administered in combination with nivolumab as measured by progression-free survival rates (PFSRs) as measured by CT scan. The time frame is approximately 3 years.\n1. Combination Therapy (Dose Escalation).\n2. Combination Therapy (Dose Expansion). […] Three patients received the compound of Formula I alone. IDO1 inhibitor therapy is not permitted. Prior exposure to immune checkpoint inhibitors or therapy targeting T-cell costimulation requires a washout period of >4 weeks."}, "[4]": {"details": "patients with advanced bladder cancer"}},
  "data": [
    {"smiles": "C[C@@H](C(=O)Nc1ccc(Cl)cc1)[C@H]1CC[C@@H](c2ccnc3ccc(F)cc32)CC1", "note": "[compound of Formula I, (R)-N-(4-chlorophenyl)-2-(cis-4-(6-fluoroquinolin-4-yl)cyclohexyl)propanamide]", "values": [
      {"measurement": "# of DLTs/# DLT evaluable", "setting": "[1]; 25 mg, dose escalation", "result": "0/7"},
      {"measurement": "# of DLTs/# DLT evaluable", "setting": "[1]; 50 mg, dose escalation", "result": "0/8"},
      {"measurement": "# of DLTs/# DLT evaluable", "setting": "[1]; 100 mg, dose escalation", "result": "1/9"},
      {"measurement": "# of DLTs/# DLT evaluable", "setting": "[1]; 200 mg, dose escalation", "result": "3/12"},
      {"measurement": "# of DLTs/# DLT evaluable", "setting": "[1]; 400 mg, dose escalation", "result": "2/4"},
      {"measurement": "DLTs", "setting": "[1]; 400 mg, dose escalation", "result": "grade 3 AST/ALT; grade 2 anemia, fatigue"},
      {"measurement": "Maximum tolerated dose", "setting": "[1]; during escalation", "result": 200, "unit": "mg"},
      {"measurement": "reduction in serum kynurenine levels", "setting": "[2]; 100 mg once daily, FIG. 1B", "result": "~60", "unit": "%"},
      {"measurement": "intratumoral kynurenine", "setting": "[2]; 39 paired pre- vs on-treatment (C1D15) tumor samples across various tumor types, FIG. 1A", "result": "reduced across all doses"},
      {"measurement": "tolerability of 100 mg", "setting": "[3]; 100 mg vs the 200-mg dose, with nivolumab", "result": "improved tolerability vs the 200-mg dose"},
      {"measurement": "tolerability", "setting": "[3]; [4]", "result": "well tolerated"},
      {"measurement": "treatment-related deaths", "setting": "[3]; [4]", "result": "No treatment-related deaths occurred"}
    ]}
  ]
}
